pIC50: −log10 of the molar value. Values belong to the compound of their own block, whether it stands above or below them. Active and inactive are the calls of the source. The rule behind the calls is not given here.
Tests used:
[1] = target: T1, P2X purinoceptor 7 (Homo sapiens) (UniProt Q99572); test: Antagonist activity at P2X7 receptor in human LPS-stimulated monocytes assessed as inhibition of ATP-induced IL1-beta release at 5 uM by ELISA; type: functional, cell-based
T1 sequence (whole entry): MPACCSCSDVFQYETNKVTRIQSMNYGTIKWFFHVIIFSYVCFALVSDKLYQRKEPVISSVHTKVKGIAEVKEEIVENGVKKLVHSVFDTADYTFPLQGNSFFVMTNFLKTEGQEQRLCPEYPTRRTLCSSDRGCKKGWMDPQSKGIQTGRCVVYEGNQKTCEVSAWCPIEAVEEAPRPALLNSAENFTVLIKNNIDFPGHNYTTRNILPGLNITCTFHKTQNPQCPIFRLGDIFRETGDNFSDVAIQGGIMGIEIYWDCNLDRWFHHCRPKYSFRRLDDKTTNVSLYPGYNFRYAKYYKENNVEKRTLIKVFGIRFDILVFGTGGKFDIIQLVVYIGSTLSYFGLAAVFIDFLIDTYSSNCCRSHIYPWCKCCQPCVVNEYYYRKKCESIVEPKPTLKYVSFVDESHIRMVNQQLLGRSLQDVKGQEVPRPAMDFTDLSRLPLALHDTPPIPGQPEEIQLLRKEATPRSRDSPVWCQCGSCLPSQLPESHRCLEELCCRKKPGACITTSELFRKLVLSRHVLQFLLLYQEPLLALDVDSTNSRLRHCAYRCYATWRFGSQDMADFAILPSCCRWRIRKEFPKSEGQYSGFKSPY

[2] = target: T1, P2X purinoceptor 7 (Homo sapiens); test: Antagonist activity at P2X7 receptor in human monocytes assessed as inhibition of LPS/ATP-induced IL1-beta release at 1 uM by ELISA; type: functional, cell-based
P2X purinoceptor 7 [3] = target: T2, P2X purinoceptor 7 (Homo sapiens, UniProt Q99572); test: (§1) Antagonist activity at P2X7 receptor in human LPS-stimulated monocytes assessed as inhibition of ATP-induced IL1-beta release by ELISA in presence of human blood; type: functional, cell-based
T2 sequence (Q99572 whole entry): T1 sequence (whole entry)

P2X purinoceptor 7 [4] = target: T2, P2X purinoceptor 7; test: Antagonist activity at P2X7 receptor in human LPS-stimulated monocytes assessed as inhibition of ATP-induced IL1-beta release by ELISA; type: functional, cell-based
[5] = target: T1, P2X purinoceptor 7 (Homo sapiens); test: as §1; type: functional, cell-based
Liver microsomes = test: Metabolic stability in human liver microsomes assessed as compound turnover; type: ADME, Microsome
Plasma = test: (§2) Fraction unbound in human plasma; type: ADME, cell-free
[6] = Cmax in rat at 5 mg/kg, po; type: ADME, organism-based; set-up: dose 5 mg/kg, route oral; settings: in vivo
[7] = Plasma protein binding in human; type: ADME, cell-free; settings: read-out: PPB
in vivo = settings: rat, plasma
Hepatocyte = test: Metabolic stability in human hepatocytes assessed as compound turnover; type: ADME, cell-based
[8] = Apparent permeability from basolateral to apical side of human Caco2 cells; type: ADME, cell-based; settings: Caco-2
P2X purinoceptor 7 [9] = target: T2, P2X purinoceptor 7; test: Antagonist activity at P2X7 receptor expressed in HEK293 cells assessed as inhibition of ATP-induced YOPRO-1 uptake; type: functional, cell-based
[10] = Apparent permeability from apical to basolateral side of human Caco2 cells; type: ADME, cell-based; settings: Caco-2
[11] = Half life in dog; type: ADME, organism-based, Canis lupus familiaris; settings: in vivo
[12] = Half life in monkey; type: ADME, organism-based, Macaca mulatta; settings: rhesus monkey, in vivo
[13] = Oral bioavailability in dog; type: ADME, organism-based, Canis lupus familiaris; settings: in vivo
Cytochrome P450 2C19 = Cytochrome P450 2C19 (Homo sapiens, UniProt P33261); test: Inhibition of human CYP2C19; type: ADME
Sequence of Cytochrome P450 2C19 (P33261 whole entry): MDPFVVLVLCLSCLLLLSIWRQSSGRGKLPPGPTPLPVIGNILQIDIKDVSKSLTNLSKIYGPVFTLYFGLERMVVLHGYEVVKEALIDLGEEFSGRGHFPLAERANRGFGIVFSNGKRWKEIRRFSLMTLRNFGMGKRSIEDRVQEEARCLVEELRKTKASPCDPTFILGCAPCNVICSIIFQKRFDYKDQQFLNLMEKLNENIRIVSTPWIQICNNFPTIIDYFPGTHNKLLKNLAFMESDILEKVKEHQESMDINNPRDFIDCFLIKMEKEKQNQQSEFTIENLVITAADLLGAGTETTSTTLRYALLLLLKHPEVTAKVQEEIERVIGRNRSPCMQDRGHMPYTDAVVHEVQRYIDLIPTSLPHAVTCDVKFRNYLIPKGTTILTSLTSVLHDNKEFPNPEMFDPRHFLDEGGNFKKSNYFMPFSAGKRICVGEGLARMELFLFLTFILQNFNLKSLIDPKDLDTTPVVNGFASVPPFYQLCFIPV

[14] = as §2; type: ADME, cell-free
[15] = Cmax in dog; type: ADME, organism-based, Canis lupus familiaris; settings: in vivo
[16] = Volume of distribution at steady state in monkey; type: ADME, organism-based, Macaca mulatta; settings: rhesus monkey, in vivo; read-out: Vdss
Rattus norvegicus = test: Toxicity in rat at 500 mg/kg, po qd for 4 days; type: organism-based; set-up: dose 500 mg/kg, route oral; settings: in vivo, 96 h
[17] = Oral bioavailability in rat at 5 mg/kg; type: ADME, organism-based; settings: in vivo
Salmonella typhimurium = test: Mutagenic activity in Salmonella Typhimurium by Ames assay; type: toxicity, organism-based; settings: salmonella enterica subsp. enterica serovar typhimurium
[18] = Volume of distribution at steady state in dog; type: ADME, organism-based, Canis lupus familiaris; settings: in vivo, read-out: Vdss
[19] = target: T3, P2X purinoceptor 7 (Mus musculus) (UniProt Q9Z1M0); test: Antagonist activity at P2X7 receptor in mouse LPS-stimulated peritoneal macrophages assessed as inhibition of ATP-induced IL1-beta release at 10 uM by ELISA; type: functional
T3 sequence (whole entry): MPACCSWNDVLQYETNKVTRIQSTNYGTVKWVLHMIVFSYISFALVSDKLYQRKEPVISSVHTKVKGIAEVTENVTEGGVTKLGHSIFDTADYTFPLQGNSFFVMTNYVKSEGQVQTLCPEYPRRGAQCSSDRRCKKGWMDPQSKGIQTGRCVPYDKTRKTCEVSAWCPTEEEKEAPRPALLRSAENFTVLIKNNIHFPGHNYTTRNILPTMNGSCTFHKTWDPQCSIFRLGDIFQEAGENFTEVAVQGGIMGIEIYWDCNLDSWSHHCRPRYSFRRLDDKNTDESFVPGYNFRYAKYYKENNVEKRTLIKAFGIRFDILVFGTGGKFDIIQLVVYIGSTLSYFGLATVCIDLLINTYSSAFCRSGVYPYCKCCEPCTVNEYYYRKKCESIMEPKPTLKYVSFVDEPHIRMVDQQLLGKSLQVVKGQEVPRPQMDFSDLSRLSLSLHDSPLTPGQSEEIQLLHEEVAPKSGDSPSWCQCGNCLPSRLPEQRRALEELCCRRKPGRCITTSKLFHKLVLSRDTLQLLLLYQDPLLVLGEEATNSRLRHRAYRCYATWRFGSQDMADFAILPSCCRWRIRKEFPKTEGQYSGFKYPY

Cytochrome P450 3A4 = Cytochrome P450 3A4 (Homo sapiens, UniProt P08684); test: Inhibition of human CYP3A4; type: ADME
Sequence of Cytochrome P450 3A4 (P08684 whole entry): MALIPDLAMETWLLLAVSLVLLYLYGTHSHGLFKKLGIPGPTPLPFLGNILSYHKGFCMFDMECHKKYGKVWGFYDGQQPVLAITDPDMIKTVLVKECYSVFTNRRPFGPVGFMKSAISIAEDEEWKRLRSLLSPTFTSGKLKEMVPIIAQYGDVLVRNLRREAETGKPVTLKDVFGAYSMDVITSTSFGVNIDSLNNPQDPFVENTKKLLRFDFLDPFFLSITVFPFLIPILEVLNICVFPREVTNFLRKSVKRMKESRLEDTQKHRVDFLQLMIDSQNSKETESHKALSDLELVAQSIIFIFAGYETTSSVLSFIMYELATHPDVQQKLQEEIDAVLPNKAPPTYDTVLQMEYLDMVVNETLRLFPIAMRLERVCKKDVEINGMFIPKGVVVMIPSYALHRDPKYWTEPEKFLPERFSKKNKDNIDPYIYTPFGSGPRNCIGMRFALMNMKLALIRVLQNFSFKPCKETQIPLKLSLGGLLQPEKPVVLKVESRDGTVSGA

Cytochrome P450 2D6 = Cytochrome P450 2D6 (Homo sapiens, UniProt P10635); test: Inhibition of human CYP2D6; type: ADME
Sequence of Cytochrome P450 2D6 (P10635 whole entry): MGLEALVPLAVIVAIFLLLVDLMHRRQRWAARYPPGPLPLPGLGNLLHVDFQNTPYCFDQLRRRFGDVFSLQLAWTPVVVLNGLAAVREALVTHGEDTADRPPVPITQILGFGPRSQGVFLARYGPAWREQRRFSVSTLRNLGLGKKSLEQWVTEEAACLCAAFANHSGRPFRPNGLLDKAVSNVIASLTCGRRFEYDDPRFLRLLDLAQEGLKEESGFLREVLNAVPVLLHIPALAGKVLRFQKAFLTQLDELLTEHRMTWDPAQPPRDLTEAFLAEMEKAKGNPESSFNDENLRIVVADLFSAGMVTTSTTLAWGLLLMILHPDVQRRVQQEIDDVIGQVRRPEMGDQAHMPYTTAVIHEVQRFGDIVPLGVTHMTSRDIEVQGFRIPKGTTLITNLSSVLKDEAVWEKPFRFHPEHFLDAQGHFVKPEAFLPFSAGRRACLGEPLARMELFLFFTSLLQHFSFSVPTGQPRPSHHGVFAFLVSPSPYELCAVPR

Cytochrome P450 2C9 = Cytochrome P450 2C9 (Homo sapiens, UniProt P11712); test: Inhibition of human CYP2C9; type: ADME
Sequence of Cytochrome P450 2C9 (P11712 whole entry): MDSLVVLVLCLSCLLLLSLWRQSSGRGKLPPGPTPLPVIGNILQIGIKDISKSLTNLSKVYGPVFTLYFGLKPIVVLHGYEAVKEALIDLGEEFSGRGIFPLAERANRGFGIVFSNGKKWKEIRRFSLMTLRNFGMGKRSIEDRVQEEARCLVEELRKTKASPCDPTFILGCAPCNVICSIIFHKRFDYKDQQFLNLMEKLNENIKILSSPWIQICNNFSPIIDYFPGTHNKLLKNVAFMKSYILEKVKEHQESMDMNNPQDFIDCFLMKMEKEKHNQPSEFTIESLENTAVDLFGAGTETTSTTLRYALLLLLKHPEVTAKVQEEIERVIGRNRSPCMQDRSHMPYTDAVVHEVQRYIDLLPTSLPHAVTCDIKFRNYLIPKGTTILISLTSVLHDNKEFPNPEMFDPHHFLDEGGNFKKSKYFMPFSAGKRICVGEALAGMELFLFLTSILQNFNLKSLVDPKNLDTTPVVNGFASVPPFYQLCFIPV

[20] = Oral bioavailability in monkey; type: ADME, organism-based, Macaca mulatta; settings: rhesus monkey, in vivo
[21] = Trough plasma concentration in rheumatoid arthritis patient at 500 mg BID for 12 weeks; type: ADME; settings: human, read-out: Cmin
[22] = target: Voltage-gated inwardly rectifying potassium channel KCNH2 (Homo sapiens, UniProt Q12809); test: Inhibition of human ERG at 1 uM
Sequence of Voltage-gated inwardly rectifying potassium channel KCNH2 (Q12809 whole entry): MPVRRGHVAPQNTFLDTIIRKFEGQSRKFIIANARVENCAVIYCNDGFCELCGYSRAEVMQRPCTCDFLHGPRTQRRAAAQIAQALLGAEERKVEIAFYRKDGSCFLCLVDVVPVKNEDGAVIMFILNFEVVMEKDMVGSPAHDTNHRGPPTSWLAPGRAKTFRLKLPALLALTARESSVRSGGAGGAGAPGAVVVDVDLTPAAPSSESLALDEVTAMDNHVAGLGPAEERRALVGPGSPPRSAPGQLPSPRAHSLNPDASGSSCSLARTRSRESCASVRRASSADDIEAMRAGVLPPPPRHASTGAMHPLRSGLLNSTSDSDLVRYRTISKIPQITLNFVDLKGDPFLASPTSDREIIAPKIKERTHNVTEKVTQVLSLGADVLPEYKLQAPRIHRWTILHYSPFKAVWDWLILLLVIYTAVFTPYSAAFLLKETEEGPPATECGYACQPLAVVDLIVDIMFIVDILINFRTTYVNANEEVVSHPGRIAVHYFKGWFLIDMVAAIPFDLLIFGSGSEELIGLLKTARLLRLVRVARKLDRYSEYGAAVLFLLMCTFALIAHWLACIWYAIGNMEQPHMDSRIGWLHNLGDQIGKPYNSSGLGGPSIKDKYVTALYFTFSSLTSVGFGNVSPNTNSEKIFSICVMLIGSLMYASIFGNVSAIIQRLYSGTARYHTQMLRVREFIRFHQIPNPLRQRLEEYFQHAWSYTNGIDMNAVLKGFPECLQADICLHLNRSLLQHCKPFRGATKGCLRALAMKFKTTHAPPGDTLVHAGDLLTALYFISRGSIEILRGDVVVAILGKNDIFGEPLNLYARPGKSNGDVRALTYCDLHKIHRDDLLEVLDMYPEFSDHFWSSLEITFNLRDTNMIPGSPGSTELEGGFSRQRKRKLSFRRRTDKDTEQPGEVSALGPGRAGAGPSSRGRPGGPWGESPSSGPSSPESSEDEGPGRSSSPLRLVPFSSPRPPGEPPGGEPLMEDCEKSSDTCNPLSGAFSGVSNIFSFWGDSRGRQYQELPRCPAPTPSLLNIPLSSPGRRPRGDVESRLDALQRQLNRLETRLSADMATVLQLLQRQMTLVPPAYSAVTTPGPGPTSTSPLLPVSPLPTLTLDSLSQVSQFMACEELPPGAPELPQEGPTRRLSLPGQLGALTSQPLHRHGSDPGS

[23] = Half life in rat; type: ADME, organism-based; settings: in vivo
Cytochrome P450 1A2 = target: T4, Cytochrome P450 1A2 (Homo sapiens, UniProt P05177); test: Inhibition of human CYP1A2; type: ADME
T4 sequence (P05177 whole entry): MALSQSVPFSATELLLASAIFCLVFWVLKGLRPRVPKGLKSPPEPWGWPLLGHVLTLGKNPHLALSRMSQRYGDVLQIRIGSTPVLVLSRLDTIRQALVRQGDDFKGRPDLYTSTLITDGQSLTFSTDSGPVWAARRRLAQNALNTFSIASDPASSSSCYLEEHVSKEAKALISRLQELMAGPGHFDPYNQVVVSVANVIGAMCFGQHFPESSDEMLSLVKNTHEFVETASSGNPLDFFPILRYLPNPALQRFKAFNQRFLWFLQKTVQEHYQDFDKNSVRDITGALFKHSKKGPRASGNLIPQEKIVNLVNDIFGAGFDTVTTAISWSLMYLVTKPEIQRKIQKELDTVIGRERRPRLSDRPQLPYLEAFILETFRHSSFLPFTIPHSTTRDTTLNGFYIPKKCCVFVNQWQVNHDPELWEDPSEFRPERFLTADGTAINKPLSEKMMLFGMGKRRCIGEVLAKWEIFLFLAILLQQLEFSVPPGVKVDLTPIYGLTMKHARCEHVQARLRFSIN

[24] = Volume of distribution at steady state in rat; type: ADME, organism-based; settings: in vivo, read-out: Vdss
[25] = Cmax in monkey; type: ADME, organism-based, Macaca mulatta; settings: rhesus monkey, in vivo

Compound: O=C(NCC1(O)CCCCCC1)c1cc(-n2ncc(=O)[nH]c2=O)ccc1F
inhibition [2]: 20%

Compound: COCCn1c(=O)cnn(-c2ccc(Cl)c(C(=O)NCC3(O)CCCCCC3)c2)c1=O
pIC50 (P2X purinoceptor 7 [3]): 7.15 | pIC50 (P2X purinoceptor 7 [4]): 7.72

Compound: CCn1c(=O)cnn(-c2ccc(Cl)c(C(=O)NCC3(O)CCCCCC3)c2)c1=O
pIC50 (P2X purinoceptor 7 [3]): 6.73 | pIC50 (P2X purinoceptor 7 [4]): 7.07

Compound: N#Cc1ccc(-n2ncc(=O)[nH]c2=O)cc1C(=O)NCC1(O)CCCCCC1
inhibition [2]: 0%

Compound: COC[C@H](O)Cn1c(=O)cnn(-c2ccc(Cl)c(C(=O)NCC3(O)CCCCCC3)c2)c1=O [CE-224535]
IC90 [5]: 4.7 nM | pIC50 (P2X purinoceptor 7 [3]): 9.10 | half-life [11]: 27.6 min | half-life [12]: 46.2 min | bioavailability [13]: 59% | pIC50 (Cytochrome P450 2C19): < 4.52 | fraction unbound [14]: 0.27 | Cmax [15]: 3500 ng/mL | Vd [16]: 0.68 L/kg | Activity (Rattus norvegicus): Non-toxic | Cmax [6]: 210 ng/mL | pIC50 (P2X purinoceptor 7 [4]): 8.85 | bioavailability [17]: 2.6% | Activity (Salmonella typhimurium): Non-toxic | Vd [18]: 0.61 L/kg | inhibition [19]: Active | pIC50 (Cytochrome P450 3A4): < 4.52 | pIC50 (Cytochrome P450 2D6): < 4.52 | pIC50 (Cytochrome P450 2C9): < 4.52 | bioavailability [20]: 22% | concentration at 2016 h [21]: 519 nM | inhibition (INH) [22]: Not Active | half-life [23]: 144 min | pIC50 (Cytochrome P450 1A2): < 4.52 | Vd [24]: 7.6 L/kg | pIC50 (P2X purinoceptor 7 [9]): 8.40 | Cmax [25]: 550 ng/mL

Compound: Cc1ccc(-n2ncc(=O)[nH]c2=O)cc1C(=O)NCC1(O)CCCCCC1
pIC50 (P2X purinoceptor 7 [4]): 6.15

Continued, values first:

inhibition [1]: 0%
Compound: O=C(NCC1CCCC1)c1cc(-n2ncc(=O)[nH]c2=O)ccc1Cl

pIC50 (P2X purinoceptor 7 [4]): 5.44
Compound: CCCCCCNC(=O)c1cc(-n2ncc(=O)[nH]c2=O)ccc1Cl

inhibition [1]: 15%
Compound: O=C(NCc1ccccc1)c1cc(-n2ncc(=O)[nH]c2=O)ccc1Cl

inhibition [1]: 19%
Compound: CCCCC(CC)COC(=O)c1cc(-n2ncc(=O)[nH]c2=O)ccc1Cl (centres undefined)

inhibition [1]: 2%
Compound: CCOCCCNC(=O)c1cc(-n2ncc(=O)[nH]c2=O)ccc1Cl

pIC50 (P2X purinoceptor 7 [4]): < 5.30
Compound: O=C(NCC1CCOCC1)c1cc(-n2ncc(=O)[nH]c2=O)ccc1Cl

pIC50 (P2X purinoceptor 7 [4]): 5.96
Compound: CCC(CC)CNC(=O)c1cc(-n2ncc(=O)[nH]c2=O)ccc1Cl

IC90 [5]: > 10000 nM | pIC50 (P2X purinoceptor 7 [3]): < 5.00 | Stability (Liver microsomes): Stable | Fu (Plasma): 0.005 | Cmax [6]: 2000 ng/mL | pIC50 (P2X purinoceptor 7 [4]): 6.54 | fraction unbound [7]: < 0.005 | clearance (in vivo): 9.5 mL/min/kg | Stability (Hepatocyte): Stable | Papp B→A [8]: 21 ×10⁻⁶ cm/s | pIC50 (P2X purinoceptor 7 [9]): 6.52 | Papp A→B [10]: 10 ×10⁻⁶ cm/s
Compound: O=C(NCCc1ccccc1Cl)c1cc(-n2ncc(=O)[nH]c2=O)ccc1Cl

inhibition [1]: 0%
Compound: CCCCNC(=O)c1cc(-n2ncc(=O)[nH]c2=O)ccc1Cl
